Measured values: patent US9999619B2, “Piperidin-4-yl azetidine derivatives as JAK1 inhibitors” (Incyte Corporation, priority 2010, dated 2018)
pIC50: −log10 of the molar value.

Tests used:
Assay type in all cases: biochemical
Jak2 (a.a. 828-1132) = Jak2 (a.a. 828-1132) (Homo sapiens (Human), UniProt O60674); experiment: In vitro JAK kinase assay (HTRF, phosphorylation of a biotinylated peptide), JAK2; details: measured at 1 mM ATP
Outline: (§1)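 N-terminally His-tagged catalytic domains, baculovirus-expressed in insect cells and purified, were used as enzyme. Reactions ran 1 hr at room temperature and were stopped with a mix of 45 mM EDTA, 300 nM SA-APC and 6 nM Eu-Py20. The HTRF signal was read after 40 min of antibody binding.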

[1] = target: human JAK1 (a.a. 837-1142) (Homo sapiens, UniProt P23458); experiment: In vitro JAK kinase assay (HTRF, phosphorylation of a biotinylated peptide), JAK1; details: measured at 1 mM ATP
Outline: as §1

[2] = target: human JAK1 (a.a. 837-1142); experiment: as above; details: ratio of JAK2 IC50 to JAK1 IC50, measured at 1 mM ATP
Outline: as §1

Chain of Jak2 (a.a. 828-1132) (O60674 828-1132): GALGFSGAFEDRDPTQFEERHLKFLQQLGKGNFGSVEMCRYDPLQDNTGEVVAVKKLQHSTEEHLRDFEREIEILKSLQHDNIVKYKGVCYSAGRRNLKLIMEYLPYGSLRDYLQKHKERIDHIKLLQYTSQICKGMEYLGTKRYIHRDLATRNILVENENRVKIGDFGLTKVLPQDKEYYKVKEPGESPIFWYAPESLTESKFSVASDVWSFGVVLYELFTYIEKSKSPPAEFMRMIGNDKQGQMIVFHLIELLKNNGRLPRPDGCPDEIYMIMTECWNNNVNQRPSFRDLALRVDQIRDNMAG

| pIC50 (Jak2 (a.a. 828-1132)) | pIC50 [1] | IC50 Ratio JAK2/JAK1 [2] | Compound |
| --- | --- | --- | --- |
| < 7.00 | 7.52 to 7.70 | 6.5 | N#CCC1(n2cc(-c3ccnc4[nH]ccc34)cn2)CN(C2CCN(C(=O)C3CCC(F)(F)CC3)CC2)C1 [Example 302, {1-{1-[(4,4-fluorocyclohexyl)carbonyl]piperidin-4-yl}-3-[4-(1H-pyrrolo[2,3-b]pyridin-4-yl)-1H-pyrazol-1-yl]azetidin-3-yl}acetonitrile] |
| 7.00 to 7.30 | ≥ 8.30 | 28.9 | CN(CCCO)Cc1cc(C(=O)N2CCC(N3CC(CC#N)(n4cc(-c5ncnc6[nH]ccc56)cn4)C3)CC2)nc(C(F)(F)F)n1 [Example 385, {1-(1-{[6-{[(3-hydroxypropyl)(methyl)amino]methyl}-2-(trifluoromethyl)pyrimidin-4-yl]carbonyl}piperidin-4-yl)-3-[4-(7H-pyrrolo[2,3-d]pyrimidin-4-yl)-1H-pyrazol-1-yl]azetidin-3-yl}acetonitrile] |
| 7.00 to 7.30 | 7.70 to 8.30 | 7.4 | N#CCC1(n2cc(-c3c(C#N)cnc4[nH]ccc34)cn2)CN(C2CCN(C(=O)c3cc(C#N)cc(C#N)c3)CC2)C1 [Example 338, 5-[(4-{3-(cyanomethyl)-3-[4-(5-cyano-1H-pyrrolo[2,3-b]pyridin-4-yl)-1H-pyrazol-1-yl]azetidin-1-yl}piperidin-1-yl)carbonyl]isophthalonitrile] |
| 7.30 to 8.00 | ≥ 8.30 | 2.8 | N#CCC1(n2cc(-c3c(F)cnc4[nH]ccc34)cn2)CN(C2CCN(C(=O)c3ccncc3F)CC2)C1 [Example 320, {1-[1-(3-fluoroisonicotinoyl)piperidin-4-yl]-3-[4-(5-fluoro-1H-pyrrolo[2,3-b]pyridin-4-yl)-1H-pyrazol-1-yl]azetidin-3-yl}acetonitrile] |
| 7.30 to 8.00 | ≥ 8.30 | 9.0 | N#CCC1(n2ccc(-c3ncnc4[nH]ccc34)c2)CN(C2CCN(C(=O)c3cc(F)cc(C(F)(F)F)c3)CC2)C1 [Example 274, {1-{1-[3-fluoro-5-(trifluoromethyl)benzoyl]piperidin-4-yl}-3-[3-(7H-pyrrolo[2,3-d]pyrimidin-4-yl)-1H-pyrrol-1-yl]azetidin-3-yl}acetonitrile] |
| 7.00 to 7.30 | 7.70 to 8.30 | 5.8 | N#CCC1(n2cc(-c3c(C#N)cnc4[nH]ccc34)cn2)CN(C2CCN(C(=O)c3cc(C(F)(F)F)ncc3F)CC2)C1 [Example 356, 4-[1-(3-(Cyanomethyl)-1-{1-[5-fluoro-2-(trifluoromethyl)isonicotinoyl]piperidin-4-yl}azetidin-3-yl)-1H-pyrazol-4-yl]-1H-pyrrolo[2,3-b]pyridine-5-carbonitrile] |
| ≥ 8.00 | ≥ 8.30 | 5.6 | N#CCC1(n2ccc(-c3ncnc4[nH]ccc34)c2)CN(C2CCN(C(=O)c3cc(F)ccc3F)CC2)C1 [Example 278, {1-[1-(2,5-difluorobenzoyl)piperidin-4-yl]-3-[3-(7H-pyrrolo[2,3-d]pyrimidin-4-yl)-1H-pyrrol-1-yl]azetidin-3-yl}acetonitrile] |
| ≥ 8.00 | ≥ 8.30 | 10.0 | N#CCC1(n2cc(-c3ccnc4[nH]ccc34)cn2)CN(C2CCN(C(=O)c3ccc(O)cc3F)CC2)C1 [Example 297, {1-[1-(2-fluoro-4-hydroxybenzoyl)piperidin-4-yl]-3-[4-(1H-pyrrolo[2,3-b]pyridin-4-yl)-1H-pyrazol-1-yl]azetidin-3-yl}acetonitrile] |
| 7.00 to 7.30 | ≥ 8.30 | 12.2 | N#CCC1(n2ccc(-c3ncnc4[nH]ccc34)c2)CN(C2CCN(C(=O)c3cc(F)cc(C#N)c3)CC2)C1 [Example 263, 3-[(4-{3-(cyanomethyl)-3-[3-(7H-pyrrolo[2,3-d]pyrimidin-4-yl)-1H-pyrrol-1-yl]azetidin-1-yl}piperidin-1-yl)carbonyl]-5-fluorobenzonitrile] |

The next lines start with the compound.

| Compound | pIC50 (Jak2 (a.a. 828-1132)) | pIC50 [1] | IC50 Ratio JAK2/JAK1 [2] |
| --- | --- | --- | --- |
| N#CCC1(n2cc(-c3ncnc4[nH]ccc34)cn2)CN(C2CCN(C(=O)c3ccc(-c4cccc(C#N)c4)c(F)c3)CC2)C1 [Example 125, 4′-[(4-{3-(cyanomethyl)-3-[4-(7H-pyrrolo[2,3-d]pyrimidin-4-yl)-1H-pyrazol-1-yl]azetidin-1-yl}piperidin-1-yl)carbonyl]-2′-fluorobiphenyl-3-carbonitrile] | 7.30 to 8.00 | ≥ 8.30 | 8.1 |
| Cn1cnc(S(=O)(=O)N2CCC(N3CC(CC#N)(n4cc(-c5ncnc6[nH]ccc56)cn4)C3)CC2)c1 [Example 258, {1-{1-[(1-methyl-1H-imidazol-4-yl)sulfonyl]piperidin-4-yl}-3-[4-(7H-pyrrolo[2,3-d]pyrimidin-4-yl)-1H-pyrazol-1-yl]azetidin-3-yl}acetonitrile] | ≥ 8.00 | ≥ 8.30 | 5.0 |
| N#CCC1(n2cc(-c3ncnc4[nH]ccc34)cn2)CN(C2CCN(C(=O)c3cc(F)ccc3F)CC2)C1 [Example 43, {1-[1-(2,5-difluorobenzoyl)piperidin-4-yl]-3-[4-(7H-pyrrolo[2,3-d]pyrimidin-4-yl)-1H-pyrazol-1-yl]azetidin-3-yl}acetonitrile] | 7.30 to 8.00 | ≥ 8.30 | 5.0 |
| N#CCC1(n2cc(-c3ncnc4[nH]ccc34)cn2)CN(C2CCN(C(=O)c3cc(F)cc(Br)c3)CC2)C1 [Example 29, {1-[1-(3-bromo-5-fluorobenzoyl)piperidin-4-yl]-3-[4-(7H-pyrrolo[2,3-d]pyrimidin-4-yl)-1H-pyrazol-1-yl]azetidin-3-yl}acetonitrile] | ≥ 8.00 | ≥ 8.30 | 7.2 |
| N#CCC1(n2cc(-c3ncnc4[nH]ccc34)cn2)CN(C2CCN(C(=O)Nc3ccc(F)cc3F)CC2)C1 [Example 171, 4-{3-(cyanomethyl)-3-[4-(7H-pyrrolo[2,3-d]pyrimidin-4-yl)-1H-pyrazol-1-yl]azetidin-1-yl}-N-(2,4-difluorophenyl)piperidine-1-carboxamide] | 7.30 to 8.00 | ≥ 8.30 | 7.5 |
| N#CCC1(n2cc(-c3ccnc4[nH]ccc34)cn2)CN(C2CCN(C(=O)Nc3ccc(F)cc3F)CC2)C1 [Example 304, 4-{3-(cyanomethyl)-3-{4-(1H-pyrrolo[2,3-b]pyridin-4-yl)-1H-pyrazol-1-yl]azetidin-1-yl}-N-(2,4-difluorophenyl)piperidine-1-carboxamide] | 7.30 to 8.00 | ≥ 8.30 | 10.3 |
| N#CCC1(n2cc(-c3ncnc4[nH]ccc34)cn2)CN(C2CCN(C(=O)Nc3cccc(Cl)c3)CC2)C1 [Example 183, N-(3-chlorophenyl)-4-{3-(cyanomethyl)-3-[4-(7H-pyrrolo[2,3-d]pyrimidin-4-yl)-1H-pyrazol-1-yl]azetidin-1-yl}piperidine-1-carboxamide] | ≥ 8.00 | ≥ 8.30 | 3.8 |
| N#CCC1(n2cc(-c3ncnc4[nH]ccc34)cn2)CN(C2CCN(C(=O)c3ccc4ncccc4c3)CC2)C1 [Example 89, {3-[4-(7H-pyrrolo[2,3-d]pyrimidin-4-yl)-1H-pyrazol-1-yl]-1-[1-(quinolin-6-ylcarbonyl)piperidin-4-yl]azetidin-3-yl}acetonitrile] | ≥ 8.00 | ≥ 8.30 | 2.6 |
| N#CCC1(n2cc(-c3ncnc4[nH]ccc34)cn2)CN(C2CCN(C(=O)c3cc(F)c(F)c(F)c3F)CC2)C1 [Example 54, {3-[4-(7H-pyrrolo[2,3-d]pyrimidin-4-yl)-1H-pyrazol-1-yl]-1-[1-(2,3,4,5-tetrafluorobenzoyl)piperidin-4-yl]azetidin-3-yl}acetonitrile] | 7.00 to 7.30 | 7.70 to 8.30 | 9.1 |
| N#CCC1(n2cc(-c3ncnc4[nH]ccc34)cn2)CN(C2CC3CCC(C2)N3C(=O)c2ccc(C(F)(F)F)nc2)C1 (stereo not drawn) [Example 143, [3-[4-(7H-pyrrolo[2,3-d]pyrimidin-4-yl)-1H-pyrazol-1-yl]-1-(8-{[6-(trifluoromethyl)pyridin-3-yl]carbonyl}-8-azabicyclo[3.2.1]oct-3-yl)azetidin-3-yl]acetonitrile] | 7.30 to 8.00 | 7.70 to 8.30 | 3.5 |
| N#CCC1(n2cc(-c3ncnc4[nH]ccc34)cn2)CN(C2CCN(C(=O)c3cc(Cl)cc(Cl)c3)CC2)C1 [Example 24, {1-[1-(3,5-dichlorobenzoyl)piperidin-4-yl]-3-[4-(7H-pyrrolo[2,3-d]pyrimidin-4-yl)-1H-pyrazol-1-yl]azetidin-3-yl}acetonitrile] | ≥ 8.00 | ≥ 8.30 | 6.6 |
| N#CCC1(n2cc(-c3ncnc4[nH]ccc34)cn2)CN(C2CCN(C(=O)c3ccc(F)c(F)c3F)CC2)C1 [Example 46, {3-[4-(7H-pyrrolo[2,3-d]pyrimidin-4-yl)-1H-pyrazol-1-yl]-1-[1-(2,3,4-trifluorobenzoyl)piperidin-4-yl]azetidin-3-yl}acetonitrile] | 7.30 to 8.00 | ≥ 8.30 | 6.3 |
| COc1cscc1C(=O)N1CCC(N2CC(CC#N)(n3cc(-c4ncnc5[nH]ccc45)cn3)C2)CC1 [Example 72, {1-{1-[(4-methoxy-3-thienyl)carbonyl]piperidin-4-yl}-3-[4-(7H-pyrrolo[2,3-d]pyrimidin-4-yl)-1H-pyrazol-1-yl]azetidin-3-yl}acetonitrile] | ≥ 8.00 | ≥ 8.30 | 6.6 |
| N#CCC1(n2cc(-c3ncnc4[nH]ccc34)cn2)CN(C2CCN(C(=O)c3c(F)cncc3F)CC2)C1 [Example 61, {1-[1-(3,5-difluoroisonicotinoyl)piperidin-4-yl]-3-[4-(7H-pyrrolo[2,3-d]pyrimidin-4-yl)-1H-pyrazol-1-yl]azetidin-3-yl}acetonitrile] | 7.30 to 8.00 | 7.70 to 8.30 | 4.2 |
